Measured values as given in patent publication US6982157B1, “Drug combinations comprising (E)-7-[4-(4-fluorophenyl)-6-isopropyl-2-[methylsulfonyl)amino] pyrimidin-5-yl] (3r,5s) -3,5-dihydroxyhept-6-enoic acid and an inhibitor, inducer or substrate of p450 isoenzyme 3A4” (AstraZeneca AB, priority 1999, dated 2006).

What was measured:
[1] = system: hypercholesterolaemia in patients following transplantation; test: Clinical study of the Agent in post-transplant patients on immunosuppressive therapy; type: in vivo, human
Method: Trial Design This is a multicenter, randomized, double-blind, parallel-group clinical trial. […] Patients who have had their dose titrated up to 40 mg may have their dose titrated back down to 20 mg at the investigator's discretion.

human hepatocytes = test: Metabolism of [14C]-labelled Agent by human hepatocytes; type: in vitro ADME; details: human hepatocytes in culture, 0-48 hours
Method: Cultures were terminated with ethanol after 0, 6, 24 and 48 hours of incubation and stored at approximately −20° C. until analysed. The metabolic competence of the hepatocytes was confirmed at the time of incubation by examining their ability to metabolise [^14C]-ethoxycoumarin (25 μM); aliquots were removed into methanol at the same time points as for the test compound.
Following incubation of [^14C]-ZD4522 with hepatocytes, metabolite profiles were generated by High Performance Liquid Chromatography (HPLC). The ability of hepatocytes to metabolise [^14C]-ethoxycoumarin was confirmed by HPLC.

[2] = system: mixed hyperlipidaemia and hypertriglyceridaemia in patients; test: Clinical study of the Agent dosed with a fibrate drug; type: in vivo, human
patients = details: cited from earlier work
[3] = system: heart transplant patients; details: cited from earlier work
[4] = system: cytochrome P450 enzymes, in particular 3A4; details: cited from earlier work
[5] = patients undertaking immunosuppressive therapy

CC(C)c1nc(N(C)S(C)(=O)=O)nc(-c2ccc(F)cc2)c1/C=C/[C@@H](O)C[C@@H](O)CC(=O)O [Agent, (E)-7-[4-(4-fluorophenyl)-6-isopropyl-2-[methyl(methylsulfonyl)amino]pyrimidin-5-yl](3R,5S)-3,5-dihydroxyhept-6-enoic acid]
treating hypercholesterolaemia in patients following transplantation ([1]; patients following transplantation): extremely effective
level of cholesterol lowering compared with what was previously achieved, such as by pravastatin [1, 5]: much higher levels of cholesterol lowering
side effects of concomitant dosing of the Agent and immunosuppressive drug(s) [1, 5]: without any clinically significant side effects
metabolism of the Agent by whole hepatocytes (human hepatocytes): not significantly metabolised
treating mixed hyperlipidaemia and hypertriglyceridaemia when combined with a fibrate drug ([2]; combined with a fibrate drug): extremely effective
side effects of concomitant dosing of the Agent and the fibrate drug ([2]; patients also taking a fibrate drug): without any clinically significant side effects

Cc1ccc(C)c(OCCCC(C)(C)C(=O)O)c1 [gemfibrozil]
patients with myositis-flu like syndrome (patients; gemfibrozil when a statin is also administered): 5%

CC[C@H](C)C(=O)O[C@H]1C[C@@H](C)C=C2C=C[C@H](C)[C@H](CC[C@@H]3C[C@@H](O)CC(=O)O3)[C@H]21 [Lovastatin, lovastatin]
cholesterol levels in heart transplant patients [3]: lower cholesterol levels

CC[C@H](C)C(=O)O[C@H]1C[C@H](O)C=C2C=C[C@H](C)[C@H](CC[C@@H](O)C[C@@H](O)CC(=O)O)[C@H]21 [pravastatin]
rate of metabolism by P450 [4]: sufficiently low

CC(C)c1c(C(=O)Nc2ccccc2)c(-c2ccccc2)c(-c2ccc(F)cc2)n1CC[C@@H](O)C[C@@H](O)CC(=O)O [atorvastatin]
patients with clinically important (>3 times ULN) elevations in serum ALT (patients; low doses of atorvastatin, European SmPC): 0.8%
